Test results from patent US6914045B2, “Glycopeptide antibiotics” (Wyeth Holdings Corporation, priority 2001, dated 2005).
Converted amounts (≈) assume the structure as drawn.

Key:
Assay in all cases: in vitro antibacterial evaluation, MIC by broth dilution
Assay type in all cases: cell-based
Escherichia coli = conditions: 18 hours at 35° C.
Streptococcus sp. = conditions: broth dilution, 18 hours at 35° C.
Outline: (§1)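 Broth dilution per NCCLS M7-A2 in Mueller-Hinton II medium, inoculum 5×10^5 CFU/mL, antibiotic range 64-0.06 μg/mL. MIC taken as lowest concentration inhibiting growth; Gram-positive panel includes recent clinical isolates resistant to methicillin, penicillin and/or vancomycin.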

Enterococcus sp. = conditions: broth dilution, 18 hours at 35° C.
Outline: as §1

Staphylococcus sp. = conditions: broth dilution, 18 hours at 35° C.
Outline: as §1

MIC Escherichia coli (ATCC 25922) (Escherichia coli): >64 mg/L
MIC Escherichia coli (GC 4559) (Escherichia coli): >64 mg/L
MIC Escherichia coli (GC 4560) (Escherichia coli): 2 mg/L (≈ 1.42 µM)
MIC Streptococcus agalactiae (GC 4564) (Streptococcus sp.): 2 mg/L (≈ 1.42 µM)
MIC Streptococcus pneumoniae (ATCC 6301) (Streptococcus sp.): 1 mg/L (≈ 0.708 µM)
MIC Streptococcus pneumoniae (GC 1894) (Streptococcus sp.): 0.5 mg/L (≈ 0.354 µM)
MIC Streptococcus pneumoniae (GC 4565) (Streptococcus sp.): 0.5 mg/L (≈ 0.354 µM)
MIC Streptococcus pyogenes (GC 4563) (Streptococcus sp.): 2 mg/L (≈ 1.42 µM)
MIC Streptococcus pneumoniae (ATCC 6301) (Streptococcus sp.; inoculum 5×10^5 CFU/mL, strain ATCC 6301): 1 mg/L (≈ 0.708 µM)
MIC Streptococcus pneumoniae (GC 1894) (Streptococcus sp.; inoculum 5×10^5 CFU/mL, strain GC 1894): 0.5 mg/L (≈ 0.354 µM)
MIC Streptococcus pyogenes (GC 4563) (Streptococcus sp.; inoculum 5×10^5 CFU/mL, strain GC 4563): 2 mg/L (≈ 1.42 µM)
MIC Streptococcus agalactiae (GC 4564) (Streptococcus sp.; inoculum 5×10^5 CFU/mL, strain GC 4564): 2 mg/L (≈ 1.42 µM)
MIC Streptococcus pneumoniae (GC 4565) (Streptococcus sp.; inoculum 5×10^5 CFU/mL, strain GC 4565): 0.5 mg/L (≈ 0.354 µM)
MIC Enterococcus avium (GC 4558) (Enterococcus sp.): 16 mg/L (≈ 11.3 µM)
MIC Enterococcus faecalis (ATCC 29212) (Enterococcus sp.): 16 mg/L (≈ 11.3 µM)
MIC Enterococcus faecalis (GC 2242) (Enterococcus sp.): 16 mg/L (≈ 11.3 µM)
MIC Enterococcus faecalis (GC 2691) (Enterococcus sp.): 16 mg/L (≈ 11.3 µM)
MIC Enterococcus faecalis (GC 3059) (Enterococcus sp.): 16 mg/L (≈ 11.3 µM)
MIC Enterococcus faecalis (GC 4552) (Enterococcus sp.): 16 mg/L (≈ 11.3 µM)
MIC Enterococcus faecalis (GC 4553) (Enterococcus sp.): 16 mg/L (≈ 11.3 µM)
MIC Enterococcus faecalis (GC 4554) (Enterococcus sp.): 16 mg/L (≈ 11.3 µM)
MIC Enterococcus faecalis (GC 6189) (Enterococcus sp.): 16 mg/L (≈ 11.3 µM)
MIC Enterococcus faecium (GC 2243) (Enterococcus sp.): 16 mg/L (≈ 11.3 µM)
MIC Enterococcus faecium (GC 4556) (Enterococcus sp.): 16 mg/L (≈ 11.3 µM)
MIC Enterococcus faecium (GC 4557) (Enterococcus sp.): 8 mg/L (≈ 5.67 µM)
MIC Enterococcus faecalis (ATCC 29212) (Enterococcus sp.; strain ATCC 29212): 16 mg/L (≈ 11.3 µM)
MIC Enterococcus faecium (GC 2243) (Enterococcus sp.; strain GC 2243): 16 mg/L (≈ 11.3 µM)
MIC Enterococcus faecalis (GC 4552) (Enterococcus sp.; strain GC 4552): 16 mg/L (≈ 11.3 µM)
MIC Enterococcus faecalis (GC 4553) (Enterococcus sp.; strain GC 4553): 16 mg/L (≈ 11.3 µM)
MIC Enterococcus faecalis (GC 4554) (Enterococcus sp.; strain GC 4554): 16 mg/L (≈ 11.3 µM)
MIC Enterococcus faecium (GC 4556) (Enterococcus sp.; strain GC 4556): 16 mg/L (≈ 11.3 µM)
MIC Enterococcus faecium (GC 4557) (Enterococcus sp.; strain GC 4557): 8 mg/L (≈ 5.67 µM)
MIC Enterococcus avium (GC 4558) (Enterococcus sp.; strain GC 4558): 16 mg/L (≈ 11.3 µM)
MIC Enterococcus faecalis (GC 6189) (Enterococcus sp.; strain GC 6189): 16 mg/L (≈ 11.3 µM)
MIC Enterococcus faecalis (GC 2242) (Enterococcus sp.; inoculum 5×10^5 CFU/mL, strain GC 2242): 16 mg/L (≈ 11.3 µM)
MIC Enterococcus faecalis (GC 2691) (Enterococcus sp.; inoculum 5×10^5 CFU/mL, strain GC 2691): 16 mg/L (≈ 11.3 µM)
MIC Enterococcus faecalis (GC 3059) (Enterococcus sp.; inoculum 5×10^5 CFU/mL, strain GC 3059): 16 mg/L (≈ 11.3 µM)
MIC Coagulase Negative Staphylococcus (GC 4547) (Staphylococcus sp.): 8 mg/L (≈ 5.67 µM)
MIC Coagulase Negative Staphylococcus (GC 4548) (Staphylococcus sp.): 4 mg/L (≈ 2.83 µM)
MIC Coagulase Negative Staphylococcus (GC 4549) (Staphylococcus sp.): 4 mg/L (≈ 2.83 µM)
MIC Coagulase Negative Staphylococcus (GC 4551) (Staphylococcus sp.): 16 mg/L (≈ 11.3 µM)
MIC Coagulase Negative Staphylococcus (GC 6257) (Staphylococcus sp.): 2 mg/L (≈ 1.42 µM)
MIC Staphylococcus aureus (ATCC 29213) (Staphylococcus sp.): 8 mg/L (≈ 5.67 µM)
MIC Staphylococcus aureus (GC 1131) (Staphylococcus sp.): 8 mg/L (≈ 5.67 µM)
MIC Staphylococcus aureus (GC 3051) (Staphylococcus sp.): 8 mg/L (≈ 5.67 µM)
MIC Staphylococcus aureus (GC 3053) (Staphylococcus sp.): 8 mg/L (≈ 5.67 µM)
MIC Staphylococcus aureus (GC 4541) (Staphylococcus sp.): 4 mg/L (≈ 2.83 µM)
MIC Staphylococcus aureus (GC 4542) (Staphylococcus sp.): 4 mg/L (≈ 2.83 µM)
MIC Staphylococcus aureus (GC 4544) (Staphylococcus sp.): 8 mg/L (≈ 5.67 µM)
MIC Staphylococcus aureus (GC 4545) (Staphylococcus sp.): 4 mg/L (≈ 2.83 µM)
MIC Staphylococcus aureus-SMITH (GC 4543) (Staphylococcus sp.): 8 mg/L (≈ 5.67 µM)
MIC Staphylococcus aureus (ATCC 29213) (Staphylococcus sp.; strain ATCC 29213): 8 mg/L (≈ 5.67 µM)
MIC Staphylococcus aureus (GC 1131) (Staphylococcus sp.; strain GC 1131): 8 mg/L (≈ 5.67 µM)
MIC Staphylococcus aureus (GC 3051) (Staphylococcus sp.; strain GC 3051): 8 mg/L (≈ 5.67 µM)
MIC Staphylococcus aureus (GC 3053) (Staphylococcus sp.; strain GC 3053): 8 mg/L (≈ 5.67 µM)
MIC Staphylococcus aureus (GC 4541) (Staphylococcus sp.; strain GC 4541): 4 mg/L (≈ 2.83 µM)
MIC Staphylococcus aureus (GC 4542) (Staphylococcus sp.; strain GC 4542): 4 mg/L (≈ 2.83 µM)
MIC Staphylococcus aureus-SMITH (GC 4543) (Staphylococcus sp.; strain GC 4543): 8 mg/L (≈ 5.67 µM)
MIC Staphylococcus aureus (GC 4544) (Staphylococcus sp.; strain GC 4544): 8 mg/L (≈ 5.67 µM)
MIC Staphylococcus aureus (GC 4545) (Staphylococcus sp.; strain GC 4545): 4 mg/L (≈ 2.83 µM)
MIC Coagulase Negative Staphylococcus (GC 4547) (Staphylococcus sp.; strain GC 4547): 8 mg/L (≈ 5.67 µM)
MIC Coagulase Negative Staphylococcus (GC 4548) (Staphylococcus sp.; strain GC 4548): 4 mg/L (≈ 2.83 µM)
MIC Coagulase Negative Staphylococcus (GC 4549) (Staphylococcus sp.; strain GC 4549): 4 mg/L (≈ 2.83 µM)
MIC Coagulase Negative Staphylococcus (GC 4551) (Staphylococcus sp.; strain GC 4551): 16 mg/L (≈ 11.3 µM)
MIC Coagulase Negative Staphylococcus (GC 6257) (Staphylococcus sp.; strain GC 6257): 2 mg/L (≈ 1.42 µM)
SMILES: CC(c1ccccc1)C1NC(=O)CNC(=O)C(CO)NC(=O)C(C(O)C2CNC(=N)N2C2OC(CO)C(O)C(O)C2O)NC(=O)C(C(O)C2CNC(=N)N2)NC(=O)C(Cc2ccc(OC3OC(CO)C(OC4OC(COCC=Cc5ccccc5)C(O)C(O)C4O)C(O)C3O)cc2)NC1=O (stereo not shown) [Example 242]
MIC Staphylococcus haemolyticus (GC 4546) (Staphylococcus sp.): 4 mg/L (≈ 2.83 µM)
MIC Staphylococcus haemolyticus (GC 4546) (Staphylococcus sp.; strain GC 4546): 4 mg/L (≈ 2.83 µM)
